Experimental data as given in PubChem BioAssay (NCI).
Values joined by “and” are separate entries in the source; they are usually repeats but may differ in a detail not shown here. Equal entries are not always repeated.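 1) Cells in 96-well plates. 2) Compound, 48 h, 5 concentrations. 3) Linear interpolation between surrounding doses. 4) Unreached endpoint = highest concentration. GI50 is the concentration that inhibits growth by half. TGI is the concentration that stops growth completely.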

Key:
Test in all cases: NCI anticancer screen, dose series, 48 h
LOX IMVI melanoma = test system: LOX IMVI melanoma
NCI-H522 lung = test system: NCI-H522 lung
NCI-H23 lung = test system: NCI-H23 lung
DMS 273 small cell lung = test system: DMS 273 small cell lung
SF-539 CNS = test system: SF-539 CNS
HCT-116 colon = test system: HCT-116 colon
HCT-15 colon = test system: HCT-15 colon
MOLT-4 leukemia = test system: MOLT-4 leukemia
SN12C renal = test system: SN12C renal
DU-145 prostate = test system: DU-145 prostate

CCCCn1c(-c2ccccc2)cs/c1=N\NC(=O)Cn1c(C)nc2ccccc21
TGI (LOX IMVI melanoma): > 100 µM
TGI (NCI-H522 lung): > 100 µM
TGI (NCI-H23 lung): > 100 µM
TGI (DMS 273 small cell lung): > 100 µM
TGI (SF-539 CNS): > 100 µM
TGI (HCT-116 colon): > 100 µM
TGI (HCT-15 colon): > 100 µM
TGI (MOLT-4 leukemia): 57.4 µM
TGI (SN12C renal): > 100 µM

CSCSCC(CO)NC(=O)/C=C\c1c(C)[nH]c(=O)[nH]c1=O (stereo not drawn)
TGI (LOX IMVI melanoma): 107 µM
TGI (NCI-H522 lung): 8.48 µM
TGI (NCI-H23 lung): 120 µM
TGI (DMS 273 small cell lung): 267 µM
TGI (SF-539 CNS): 192 µM
TGI (HCT-116 colon): 96.4 µM
TGI (HCT-15 colon): 214 µM
TGI (MOLT-4 leukemia): 59.1 µM
TGI (SN12C renal): 102 µM

O=C(O)C12C=CC(C1)c1ccccc12 (stereo not drawn)
TGI (LOX IMVI melanoma): > 100 µM
TGI (NCI-H23 lung): > 100 µM
TGI (DMS 273 small cell lung): > 100 µM
TGI (HCT-116 colon): > 100 µM
TGI (HCT-15 colon): > 100 µM
TGI (MOLT-4 leukemia): > 100 µM
TGI (SN12C renal): > 100 µM

CC(C)(C1=NC(C(C)(C)C)CO1)C1=N[C@@H](C(C)(C)C)CO1 (stereo partly drawn)
TGI (LOX IMVI melanoma): > 100 µM
TGI (NCI-H522 lung): > 100 µM
TGI (NCI-H23 lung): > 100 µM
TGI (DMS 273 small cell lung): > 100 µM
TGI (SF-539 CNS): > 100 µM
TGI (HCT-116 colon): > 100 µM
TGI (HCT-15 colon): > 100 µM
TGI (MOLT-4 leukemia): > 100 µM
TGI (SN12C renal): > 100 µM

Cc1c2cc[n+](C)cc2c(C)c2c1[nH]c1ccc(OCC(F)(F)F)cc12
GI50 (LOX IMVI melanoma): 10.8 µM and 22.8 µM
TGI (LOX IMVI melanoma): > 100 µM
TGI (NCI-H522 lung): 5.64 µM and 4.83 µM
TGI (NCI-H23 lung): 5.8 µM and 9.49 µM
TGI (DMS 273 small cell lung): > 31.7 µM and 30.9 µM
GI50 (SF-539 CNS): 1.73 µM
TGI (HCT-116 colon): > 100 µM
GI50 (HCT-15 colon): 44.6 µM and > 100 µM
TGI (HCT-15 colon): > 100 µM
TGI (MOLT-4 leukemia): 11.1 µM and > 55.9 µM
GI50 (SN12C renal): 0.123 µM

c1ccc(C2N=C(c3ccccn3)C(c3ccccn3)=NC2c2ccccc2)cc1 (stereo not drawn)
TGI (LOX IMVI melanoma): > 100 µM
TGI (NCI-H522 lung): > 100 µM
TGI (NCI-H23 lung): > 100 µM
TGI (DMS 273 small cell lung): > 100 µM
TGI (SF-539 CNS): > 100 µM
TGI (HCT-116 colon): > 100 µM
TGI (HCT-15 colon): > 100 µM
TGI (MOLT-4 leukemia): > 100 µM

C=C1C(=O)OC2C[C@@]3(C)CCCC(=C)C3CC12 (stereo partly drawn)
TGI (LOX IMVI melanoma): 2.59 µM
TGI (NCI-H522 lung): 3.65 µM
TGI (NCI-H23 lung): 26.9 µM
TGI (DMS 273 small cell lung): 10.7 µM
TGI (SF-539 CNS): 3.7 µM
TGI (HCT-116 colon): 15.2 µM
TGI (HCT-15 colon): 24.7 µM
TGI (SN12C renal): 16.7 µM

COC(=O)c1c(CC(=O)OC(C)C)cc2n(c1=O)Cc1c-2nc2ccccc2c1OC
TGI (LOX IMVI melanoma): > 100 µM
TGI (NCI-H522 lung): > 100 µM
TGI (NCI-H23 lung): > 100 µM
TGI (DMS 273 small cell lung): > 100 µM
TGI (HCT-116 colon): > 100 µM
TGI (HCT-15 colon): > 100 µM
TGI (MOLT-4 leukemia): > 100 µM
TGI (SN12C renal): > 100 µM

Cc1ccc(N2Cc3c(ccc4ccccc34)OP2(=S)N2CCCC2)cc1 (stereo not drawn)
TGI (LOX IMVI melanoma): > 100 µM
TGI (NCI-H522 lung): > 100 µM
TGI (NCI-H23 lung): > 100 µM
TGI (DMS 273 small cell lung): > 100 µM
TGI (SF-539 CNS): > 100 µM
TGI (HCT-116 colon): > 100 µM
TGI (HCT-15 colon): > 100 µM
TGI (MOLT-4 leukemia): > 100 µM
TGI (SN12C renal): > 100 µM

C/C(N=NS(=O)(=O)c1c(C)cc(C)cc1C)=C1\C=CC=CN1O
TGI (NCI-H522 lung): > 100 µM
TGI (NCI-H23 lung): > 100 µM
TGI (DMS 273 small cell lung): > 100 µM
TGI (SF-539 CNS): > 100 µM
TGI (HCT-116 colon): > 100 µM
TGI (HCT-15 colon): > 100 µM
TGI (MOLT-4 leukemia): > 100 µM
TGI (SN12C renal): > 100 µM

O=Cn1c2ccccc2c2ccccc21
TGI (LOX IMVI melanoma): > 100 µM
TGI (NCI-H522 lung): > 100 µM
TGI (NCI-H23 lung): > 100 µM
TGI (DMS 273 small cell lung): > 100 µM
TGI (SF-539 CNS): > 100 µM
TGI (HCT-116 colon): > 100 µM
TGI (HCT-15 colon): > 100 µM
TGI (MOLT-4 leukemia): > 100 µM
TGI (SN12C renal): > 100 µM

C#CCn1c(I)cc2c(c1=O)COC(=O)[C@]2(O)CC
TGI (LOX IMVI melanoma): > 100 µM
TGI (NCI-H522 lung): > 100 µM
TGI (NCI-H23 lung): > 100 µM
TGI (SF-539 CNS): > 100 µM
TGI (DU-145 prostate): > 100 µM
TGI (HCT-116 colon): > 100 µM
TGI (HCT-15 colon): > 100 µM
TGI (MOLT-4 leukemia): > 100 µM
TGI (SN12C renal): > 100 µM

CC(C)=CC(=O)OC1C2C(C)=CC(=O)C(O)C2(C)C2C3(O)OCC24C(CC(=O)OC14)C(C)C3O (stereo not drawn)
GI50 (LOX IMVI melanoma): 0.0298 µM
GI50 (NCI-H522 lung): 0.02 µM
TGI (NCI-H522 lung): 0.011 µM and 0.0215 µM
GI50 (NCI-H23 lung): 0.02 µM
GI50 (DMS 273 small cell lung): 0.02 µM
TGI (DMS 273 small cell lung): 0.0122 µM and 0.0241 µM
GI50 (SF-539 CNS): 0.02 µM
TGI (SF-539 CNS): 0.0132 µM and 0.0415 µM
GI50 (DU-145 prostate): 0.0225 µM
TGI (DU-145 prostate): 0.0173 µM and 0.141 µM
GI50 (HCT-116 colon): 0.02 µM
TGI (HCT-116 colon): 0.0172 µM and 0.0807 µM
GI50 (HCT-15 colon): 0.0579 µM and 0.0541 µM
TGI (HCT-15 colon): 0.212 µM and 0.853 µM and 0.687 µM
GI50 (MOLT-4 leukemia): 0.02 µM
GI50 (SN12C renal): 0.0133 µM and 0.0406 µM
TGI (SN12C renal): 0.245 µM and 0.089 µM and 0.327 µM

COC1(C)CCC(OS(C)(=O)=O)CO1 (stereo not drawn)
TGI (LOX IMVI melanoma): > 100 µM
TGI (NCI-H522 lung): > 100 µM
TGI (NCI-H23 lung): > 100 µM
TGI (SF-539 CNS): > 100 µM
TGI (DU-145 prostate): > 100 µM
TGI (HCT-116 colon): > 100 µM
TGI (HCT-15 colon): > 100 µM
TGI (MOLT-4 leukemia): > 100 µM
TGI (SN12C renal): > 100 µM

O=S1(=O)N=C(SCc2c[nH]c3ccccc23)N(c2ccccc2)c2ccncc21
TGI (LOX IMVI melanoma): > 100 µM
TGI (NCI-H522 lung): > 100 µM
TGI (NCI-H23 lung): > 100 µM
TGI (SF-539 CNS): 80.5 µM
TGI (DU-145 prostate): > 100 µM
TGI (HCT-116 colon): > 100 µM
TGI (HCT-15 colon): > 100 µM
TGI (MOLT-4 leukemia): > 100 µM
TGI (SN12C renal): > 100 µM

COC(=O)c1ccc(C)cc1C1CN=NC12Cc1cccc(C)c1C2=O (stereo not drawn)
TGI (LOX IMVI melanoma): 63.9 µM
TGI (NCI-H522 lung): 78.1 µM
TGI (NCI-H23 lung): > 100 µM
TGI (SF-539 CNS): > 100 µM
TGI (DU-145 prostate): > 100 µM
TGI (HCT-116 colon): > 100 µM
TGI (HCT-15 colon): > 100 µM
TGI (MOLT-4 leukemia): 43.1 µM
TGI (SN12C renal): > 100 µM
